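48-hour exposure; five concentrations; linearly interpolated endpoints. Here, GI50 denotes the concentration required for 50% inhibition of growth.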 The source made the active and inactive calls. Cut-off read from the data, not from the text of the source: active = GI50 up to about 1.1 µM and inactive = higher.
Tests used:
Experiment in all cases: DTP human tumour cell line panel, 48 h
OVCAR-3 = tested on: OVCAR-3
K562 = tested on: K562
HCT-116 = tested on: HCT-116
HT-29 = tested on: HT-29
Malme-3M = tested on: Malme-3M
PC-3 = tested on: PC-3
MDA-MB-435 = tested on: MDA-MB-435
SK-MEL-5 = tested on: SK-MEL-5
NCI-H522 = tested on: NCI-H522
SW-620 = tested on: SW-620
NCI/ADR-RES = tested on: NCI/ADR-RES
DU-145 = tested on: DU-145
SK-MEL-2 = tested on: SK-MEL-2
HCT-15 = tested on: HCT-15
NCI-H23 = tested on: NCI-H23
EKVX = tested on: EKVX
NCI-H226 = tested on: NCI-H226
SK-MEL-28 = tested on: SK-MEL-28
SF-268 = tested on: SF-268
HCC 2998 = tested on: HCC 2998

## O=C1NC(=O)C2(CCCCCC2)N1
OVCAR-3
  GI50: > 100 µM (inactive)
K562
  GI50: > 100 µM (inactive)
HCT-116
  GI50: > 100 µM (inactive)
HT-29
  GI50: > 100 µM (inactive)
Malme-3M
  GI50: > 100 µM (inactive)
PC-3
  GI50: > 100 µM (inactive)
MDA-MB-435
  GI50: > 100 µM (inactive)
SK-MEL-5
  GI50: > 100 µM (inactive)
NCI-H522
  GI50: > 100 µM (inactive)
SW-620
  GI50: > 100 µM (inactive)
NCI/ADR-RES
  GI50: > 100 µM (inactive)
DU-145
  GI50: > 100 µM (inactive)
SK-MEL-2
  GI50: > 100 µM (inactive)
HCT-15
  GI50: > 100 µM
NCI-H23
  GI50: > 100 µM (inactive)
EKVX
  GI50: > 100 µM (inactive)
NCI-H226
  GI50: > 100 µM (inactive)
SK-MEL-28
  GI50: > 100 µM (inactive)
SF-268
  GI50: > 100 µM (inactive)

## COc1ccc(OC)c(C2CCc3cnc4nc(N)nc(N)c4c3C2)c1 (stereo unspecified)
OVCAR-3
  GI50: > 100 µM (inactive)
K562
  GI50: 46.9 µM (inactive)
HCT-116
  GI50: 46 µM (inactive)
HCC 2998
  GI50: > 100 µM (inactive)
HT-29
  GI50: 70.1 µM (inactive)
Malme-3M
  GI50: > 100 µM (inactive)
PC-3
  GI50: > 100 µM (inactive)
MDA-MB-435
  GI50: 87.1 µM (inactive)
SK-MEL-5
  GI50: > 100 µM (inactive)
NCI-H522
  GI50: > 100 µM (inactive)
SW-620
  GI50: > 100 µM (inactive)
NCI/ADR-RES
  GI50: > 100 µM (inactive)
DU-145
  GI50: > 100 µM (inactive)
SK-MEL-2
  GI50: > 100 µM (inactive)
HCT-15
  GI50: > 100 µM
NCI-H23
  GI50: 64.6 µM (inactive)
EKVX
  GI50: > 100 µM (inactive)
SK-MEL-28
  GI50: > 100 µM (inactive)
SF-268
  GI50: > 100 µM (inactive)

## Cc1ccc(O)c(Cc2nc3ccccc3nc2-c2cccc(Br)c2)c1
OVCAR-3
  GI50: > 100 µM (inactive)
K562
  GI50: 34.4 µM (inactive)
HCT-116
  GI50: 48.5 µM (inactive)
HT-29
  GI50: > 100 µM (inactive)
Malme-3M
  GI50: > 100 µM (inactive)
PC-3
  GI50: > 100 µM (inactive)
MDA-MB-435
  GI50: > 100 µM (inactive)
SK-MEL-5
  GI50: > 100 µM (inactive)
NCI-H522
  GI50: 44.2 µM (inactive)
SW-620
  GI50: 86.3 µM (inactive)
NCI/ADR-RES
  GI50: > 100 µM (inactive)
DU-145
  GI50: > 100 µM (inactive)
SK-MEL-2
  GI50: > 100 µM (inactive)
HCT-15
  GI50: 22.3 µM
NCI-H23
  GI50: > 100 µM (inactive)
EKVX
  GI50: > 100 µM (inactive)
NCI-H226
  GI50: > 100 µM (inactive)
SF-268
  GI50: > 100 µM (inactive)

## CN(C)CCOC(=O)c1ccc(N)cc1
OVCAR-3
  GI50: 45.2 µM (inactive)
K562
  GI50: 30 µM (inactive)
HCT-116
  GI50: 54.7 µM (inactive)
HCC 2998
  GI50: 16 µM (inactive)
HT-29
  GI50: 27 µM (inactive)
Malme-3M
  GI50: 49.8 µM (inactive)
PC-3
  GI50: 12.1 µM (inactive)
MDA-MB-435
  GI50: 41.8 µM (inactive)
SK-MEL-5
  GI50: 25.6 µM (inactive)
NCI-H522
  GI50: 20.4 µM (inactive)
SW-620
  GI50: 64.4 µM (inactive)
NCI/ADR-RES
  GI50: 51.2 µM (inactive)
DU-145
  GI50: 71.6 µM (inactive)
HCT-15
  GI50: > 100 µM
NCI-H23
  GI50: 74.1 µM (inactive)
NCI-H226
  GI50: 21.5 µM (inactive)
SK-MEL-28
  GI50: 29.1 µM (inactive)
SF-268
  GI50: 41.6 µM (inactive)

## O=c1c2ccccc2sc2c(CO)ccc(NCCN3CCCCC3)c12
OVCAR-3
  GI50: 2.22 µM (inactive)
K562
  GI50: 2 µM (inactive)
HCT-116
  GI50: 2.38 µM (inactive)
HT-29
  GI50: 2.94 µM (inactive)
Malme-3M
  GI50: 2.24 µM (inactive)
PC-3
  GI50: 4.31 µM (inactive)
MDA-MB-435
  GI50: 2.64 µM (inactive)
SK-MEL-5
  GI50: 1.69 µM (inactive)
NCI-H522
  GI50: 1.58 µM (inactive)
SW-620
  GI50: 2.25 µM (inactive)
NCI/ADR-RES
  GI50: 2.64 µM (inactive)
DU-145
  GI50: 2.54 µM (inactive)
SK-MEL-2
  GI50: 4.47 µM (inactive)
HCT-15
  GI50: 3.56 µM
NCI-H23
  GI50: 2.96 µM (inactive)
EKVX
  GI50: 4.66 µM (inactive)
NCI-H226
  GI50: 2.85 µM (inactive)
SK-MEL-28
  GI50: 2.9 µM (inactive)
SF-268
  GI50: 3.32 µM (inactive)

## CC1N(C)C(=O)OC12CCN(CCCC(=O)c1ccc(F)cc1)CC2 (stereo unspecified)
OVCAR-3
  GI50: > 100 µM (inactive)
K562
  GI50: > 100 µM (inactive)
HCT-116
  GI50: > 100 µM (inactive)
HT-29
  GI50: > 100 µM (inactive)
Malme-3M
  GI50: > 100 µM (inactive)
PC-3
  GI50: > 100 µM (inactive)
MDA-MB-435
  GI50: > 100 µM (inactive)
SK-MEL-5
  GI50: > 100 µM (inactive)
NCI-H522
  GI50: > 100 µM (inactive)
SW-620
  GI50: > 100 µM (inactive)
NCI/ADR-RES
  GI50: > 100 µM (inactive)
DU-145
  GI50: > 100 µM (inactive)
SK-MEL-2
  GI50: > 100 µM (inactive)
HCT-15
  GI50: > 100 µM
NCI-H23
  GI50: > 100 µM (inactive)
NCI-H226
  GI50: > 100 µM (inactive)
SK-MEL-28
  GI50: > 100 µM (inactive)
SF-268
  GI50: > 100 µM (inactive)
